From publication PMC2880636 (Journal of medicinal chemistry, 2009)
pIC50: −log10 of the molar value.

Columns and labels:
morphine antinociception = experiment: warm-water tail immersion test, blockade of morphine antinociception; conditions: sc, 5 min before morphine 10 mg/kg sc; 56 °C; tested 20 min later
MOR = MOR (Mus musculus, UniProt P42866); experiment: 35S-GTP[γS]-binding functional assay in MOR expressing CHO cells; format: biochemical; conditions: Emax relative to full agonist DAMGO (3 μM)
Sequence of MOR (P42866 whole entry): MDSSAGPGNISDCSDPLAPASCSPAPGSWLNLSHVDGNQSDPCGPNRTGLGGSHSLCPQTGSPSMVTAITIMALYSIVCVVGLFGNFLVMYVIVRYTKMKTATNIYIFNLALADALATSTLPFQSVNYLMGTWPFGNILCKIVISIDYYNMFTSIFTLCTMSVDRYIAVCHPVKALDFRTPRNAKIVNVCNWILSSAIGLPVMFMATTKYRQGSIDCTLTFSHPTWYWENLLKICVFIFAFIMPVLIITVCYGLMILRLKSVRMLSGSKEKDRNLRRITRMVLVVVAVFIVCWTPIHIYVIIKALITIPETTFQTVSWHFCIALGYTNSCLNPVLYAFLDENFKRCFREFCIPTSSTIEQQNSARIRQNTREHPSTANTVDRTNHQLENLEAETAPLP

W318A mutant MOR = W318A mutant MOR (Mus musculus, UniProt P42866, W318A); format: binding
Sequence of W318A mutant MOR (P42866 whole entry W318A): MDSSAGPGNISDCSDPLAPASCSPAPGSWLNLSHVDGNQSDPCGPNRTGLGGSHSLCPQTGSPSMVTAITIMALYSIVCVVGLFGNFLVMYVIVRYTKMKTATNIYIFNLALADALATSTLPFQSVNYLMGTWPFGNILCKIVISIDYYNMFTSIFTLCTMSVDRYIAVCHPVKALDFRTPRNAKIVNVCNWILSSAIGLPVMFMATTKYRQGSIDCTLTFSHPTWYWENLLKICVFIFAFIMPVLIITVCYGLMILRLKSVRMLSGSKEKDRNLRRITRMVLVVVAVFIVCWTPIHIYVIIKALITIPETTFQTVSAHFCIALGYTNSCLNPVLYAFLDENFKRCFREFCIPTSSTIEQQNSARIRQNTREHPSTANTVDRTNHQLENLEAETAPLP

antinociception = experiment: warm-water tail immersion test, agonist; conditions: doses up to 100 mg/kg
μ opioid receptor (MOR) = μ opioid receptor (MOR) (Mus musculus, UniProt P42866); experiment: competitive radioligand binding, [3H]naloxone, monocloned receptor in CHO cells
Sequence of μ opioid receptor (MOR) (P42866 whole entry): as the sequence (P42866 whole entry) above

SMILES | AD50 value (mg/kg (95% CL)) for blockade of morphine antinociception (morphine antinociception) | other results
O=C(N[C@@H]1CC[C@@]2(O)[C@H]3Cc4ccc(O)c5c4[C@@]2(CCN3CC2CC2)[C@H]1O5)c1cnc2ccccc2c1 [Compound 14, 17-Cyclopropylmethyl-3,14β-dihydroxy-4,5α-epoxy-6β-[(3′-quinolyl)acetamido]morphinan] | 42.55 (23.67–76.51) mg/kg | –
C=CCN1CC[C@]23c4c5ccc(O)c4O[C@H]2C(=O)CC[C@@]3(O)[C@H]1C5 [naloxone, reference compound] | 0.05 (0.03–0.09) mg/kg | –
O=C(N[C@H]1CC[C@@]2(O)[C@H]3Cc4ccc(O)c5c4[C@@]2(CCN3CC2CC2)[C@H]1O5)c1cnc2ccccc2c1 [Compound 13, 17-Cyclopropylmethyl-3,14β-dihydroxy-4,5α-epoxy-6α-[(3′-quinolyl)acetamido]morphinan] | 4.45 (2.41–8.15) mg/kg | –
O=C(N[C@H]1CC[C@@]2(O)[C@H]3Cc4ccc(O)c5c4[C@@]2(CCN3CC2CC2)[C@H]1O5)c1cc2ccccc2cn1 [Compound 9, 17-Cyclopropylmethyl-3,14β-dihydroxy-4,5α-epoxy-6α-[(3′-isoquinolyl)acetamido]morphinan] | 0.45 (0.27–0.78) mg/kg | % max of DAMGO (MOR): approximately 20%; pIC50 (W318A mutant MOR): < 6.00; agonist effect in tail immersion test (antinociception): neither of these ligands produced any agonist effect; selectivity for the MOR over the DOR (μ opioid receptor (MOR)): over 200 fold; selectivity for the MOR over the KOR (μ opioid receptor (MOR)): approximately 50 fold
O=C(N[C@@H]1CC[C@@]2(O)[C@H]3Cc4ccc(O)c5c4[C@@]2(CCN3CC2CC2)[C@H]1O5)c1cc2ccccc2cn1 [Compound 10] | inactive | –
